Values quoted from earlier work as cited in US20050203014A1, “Composition and methods for modulating CNS activity” (Curis, Inc., priority 2003, published 2005).

Columns and labels:
[1] = system: knock-out mice lacking 5-HT1A receptors; settings: 5-HT1A receptor knock-out mice
[2] = system: dentate gyrus of the rat hippocampus

Row | SMILES | response to antidepressant [1] | neurogenesis in the dentate gyrus [2]
1 | CNCCCN1c2ccccc2CCc2ccccc21 [desipramine] | respond | 
2 | CNCCC(Oc1ccc(C(F)(F)F)cc1)c1ccccc1 (centres unmarked) [fluoxetine] | non-responsive | increase neurogenesis
3 | CN(C)CCCN1c2ccccc2CCc2ccccc21 [imipramine] | respond | increase neurogenesis
